“Also recorded” adds a separate entry of the source.
Key:
α2c adrenoreceptor = molecular target: T1, α2c adrenoreceptor (Homo sapiens, UniProt P18825); assay: [35S]-GTPγS binding exchange, α2c CHO cell membranes; assay type: biochemical; conditions: for stimulation of [35S]-GTPγS binding, α2c (in words): CHO cell membranes
T1 construct: expressed in transfected cells; host or cells: CHO (Chinese hamster ovary) cells, membranes
T1 sequence (P18825 1-462): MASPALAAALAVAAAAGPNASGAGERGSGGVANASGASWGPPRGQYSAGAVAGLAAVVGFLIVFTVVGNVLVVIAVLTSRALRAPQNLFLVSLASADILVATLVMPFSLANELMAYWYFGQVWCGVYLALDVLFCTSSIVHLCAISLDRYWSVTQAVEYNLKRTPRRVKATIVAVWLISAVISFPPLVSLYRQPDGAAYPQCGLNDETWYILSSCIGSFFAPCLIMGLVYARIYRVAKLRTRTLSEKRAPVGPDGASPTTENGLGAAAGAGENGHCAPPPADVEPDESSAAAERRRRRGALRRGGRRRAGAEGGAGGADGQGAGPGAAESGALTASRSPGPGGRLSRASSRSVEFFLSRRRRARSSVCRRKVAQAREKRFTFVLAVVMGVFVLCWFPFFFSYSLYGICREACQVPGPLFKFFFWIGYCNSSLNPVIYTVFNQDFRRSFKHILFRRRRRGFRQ
Experimental: The affinity and activity of phenylephrine metabolites were evaluated in human recombinant α1 and α2 adrenoreceptor binding and activity assays. […] Affinity of the metabolites was determined by receptor binding assays. Functional activity of the metabolites was assessed using an [^35S]-GTPγS binding exchange assay for the α2 receptor subtypes and a cell-based calcium flux response for the α1 receptor subtypes.
Assay buffer was 75 mM Tris-HCl pH 7.4, 12.5 mM MgCl2, 2 mM EDTA and 1 μM GDP. Plates were counted on a Packard TopCount. The percent increase over basal binding of [^35S]-GTPγS, a measure of efficacy, was calculated as follows: 100×[[mean total sample cpm−basal cpm]÷by basal cpm]. Basal cpm was defined as the mean cpm in the absence of agonist compound minus the mean non-specific binding cpm.
Each metabolite was evaluated in each assay in at least 2 independent experiments and a representative assay of each metabolite/assay combination is shown.

α1a adrenoreceptor = molecular target: T2, α1a adrenoreceptor (Homo sapiens, UniProt P35348); assay: Competition binding, [3H]-prazosin, α1a CHO cell membranes
T2 construct: expressed in transfected cells
T2 sequence (P35348 1-466): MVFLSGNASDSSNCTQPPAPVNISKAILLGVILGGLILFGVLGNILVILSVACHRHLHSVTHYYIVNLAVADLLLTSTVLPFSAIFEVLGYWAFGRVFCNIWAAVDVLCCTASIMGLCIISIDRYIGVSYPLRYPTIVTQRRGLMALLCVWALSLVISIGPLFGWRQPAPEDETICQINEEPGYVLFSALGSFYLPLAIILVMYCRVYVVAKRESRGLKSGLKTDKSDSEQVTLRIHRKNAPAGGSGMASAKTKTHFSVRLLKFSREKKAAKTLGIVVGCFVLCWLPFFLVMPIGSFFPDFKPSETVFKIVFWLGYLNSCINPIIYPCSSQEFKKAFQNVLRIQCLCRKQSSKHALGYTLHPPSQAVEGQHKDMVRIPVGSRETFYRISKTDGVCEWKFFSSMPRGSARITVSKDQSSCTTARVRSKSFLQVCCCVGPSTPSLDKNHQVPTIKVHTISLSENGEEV

agonist activity, α2c [35S]-GTPγS assay (in words) (α2c adrenoreceptor; highest concentration evaluated (10 μM)) | EC50 (α2c adrenoreceptor; read-out: EC50, a2c GTPγS (class symbol)) [µM] | Ki (α1a adrenoreceptor; [3H]-prazosin, read-out: Ki, a1a Binding (class symbol)) [µM] | SMILES | stimulation of [35S]-GTPγS binding, α2c (in words) (α2c adrenoreceptor) | binding / affinity, α1a receptor (in words) (α1a adrenoreceptor; concentrations up to 100 μM) | stimulation of [35S]-GTPγS binding, α2c (in words) (α2c adrenoreceptor; listed as PE glucuronide b2) | inhibition of 3H-prazosin binding, α1a (in words) (α1a adrenoreceptor; CHO cell membranes)
no activity | > 10 | > 100 | O=C(O)C(O)c1cccc(O)c1 (centres unmarked) [3-hydroxymandelic acid] | no activity | No appreciable binding; also recorded: no affinity |  | 
 |  |  | CNC[C@H](O)c1cccc(O[C@@H]2O[C@H](C(=O)O)[C@@H](O)[C@H](O)[C@H]2O)c1 [PE glucuronide, (R)-PE glucuronide] | nor did it activate binding; also recorded: pharmacologically inactive |  | No stimulatory activity | No appreciable binding; also recorded: no binding affinity; also recorded: pharmacologically inactive
